Assay results published in PMC5218480 (PLoS ONE, 2017).

Test system: MV-4-11 cells
Assay: Gene expression microarray analysis (Affymetrix PrimeView) and GSEA
Format: cell-based, human
Parameters: RFU PODN (11730768_x_at) / Fold change /veh PODN (11730768_x_at) / RFU LINC00158 (11744669_a_at) / Fold change /veh LINC00158 (11744669_a_at) / RFU DUSP10 (11751237_a_at) / Fold change /veh DUSP10 (11751237_a_at) / RFU ID3 (11757404_x_at) / Fold change /veh ID3 (11757404_x_at) / RFU PLEKHG5 (11737974_s_at) / Fold change /veh PLEKHG5 (11737974_s_at) / RFU LRRC4B (11730491_at) / Fold change /veh LRRC4B (11730491_at) / RFU GIMAP4 (11747438_a_at) / Fold change /veh GIMAP4 (11747438_a_at) / RFU KRT8 (11758183_x_at) / Fold change /veh KRT8 (11758183_x_at) / RFU CNN1 (11734310_a_at) / Fold change /veh CNN1 (11734310_a_at) / RFU VPS37D (11726825_at) / Fold change /veh VPS37D (11726825_at) / RFU C10orf10 (11716522_x_at) / Fold change /veh C10orf10 (11716522_x_at) / RFU KIR2DL2 /// KIR2DL4 /// KIR2DL5A /// KIR2DL5B /// KIR2DS1 /// KIR2DS2 /// KIR2DS3 /// KIR2DS4 /// KIR3DL3 /// KIR3DL3 /// KIR3DS1 (11738374_at) / Fold change /veh KIR2DL2 /// KIR2DL4 /// KIR2DL5A /// KIR2DL5B /// KIR2DS1 /// KIR2DS2 /// KIR2DS3 /// KIR2DS4 /// KIR3DL3 /// KIR3DL3 /// KIR3DS1 (11738374_at) / RFU C1QL1 (11718748_at) / Fold change /veh C1QL1 (11718748_at) / RFU TMPRSS4 (11747572_a_at) / Fold change /veh TMPRSS4 (11747572_a_at) / RFU HAMP (11756126_x_at) / Fold change /veh HAMP (11756126_x_at) / RFU RNFT2 (11725882_a_at) / Fold change /veh RNFT2 (11725882_a_at) / RFU NR4A2 (11747474_a_at) / Fold change /veh NR4A2 (11747474_a_at) / RFU ABCC12 (11746883_a_at) / Fold change /veh ABCC12 (11746883_a_at) / RFU TMEM136 (11760407_x_at) / Fold change /veh TMEM136 (11760407_x_at) / RFU CLDN22 /// WWC2 (11732394_at) / Fold change /veh CLDN22 /// WWC2 (11732394_at) / RFU HLA-DPB1 (11760878_x_at) / Fold change /veh HLA-DPB1 (11760878_x_at) / RFU SPINT1 (11716480_a_at) / Fold change /veh SPINT1 (11716480_a_at) / RFU GAP43 (11754022_s_at) / Fold change /veh GAP43 (11754022_s_at) / RFU A4GNT (11735810_at) / Fold change /veh A4GNT (11735810_at) / RFU PRB3 (11715151_x_at) / Fold change /veh PRB3 (11715151_x_at) / RFU TUBB4B (11761932_at) / Fold change /veh TUBB4B (11761932_at) / RFU CAPN14 (11732068_a_at) / Fold change /veh CAPN14 (11732068_a_at) / RFU TMCC2 (11721928_a_at) / Fold change /veh TMCC2 (11721928_a_at) / RFU IRGQ (11745062_a_at) / Fold change /veh IRGQ (11745062_a_at) / RFU FAM174B (11720279_a_at) / Fold change /veh FAM174B (11720279_a_at) / RFU TMPRSS4 (11748680_a_at) / Fold change /veh TMPRSS4 (11748680_a_at) / RFU FAM212B (11763350_a_at) / Fold change /veh FAM212B (11763350_a_at) / RFU PLEKHG5 (11743358_a_at) / Fold change /veh PLEKHG5 (11743358_a_at) / RFU ZSCAN30 (11745921_a_at) / Fold change /veh ZSCAN30 (11745921_a_at) / RFU CMKLR1 (11741424_a_at) / Fold change /veh CMKLR1 (11741424_a_at) / RFU LOC101060620 /// MAPK8IP1 (11723275_at) / Fold change /veh LOC101060620 /// MAPK8IP1 (11723275_at) / RFU SPTSSB (11747773_x_at) / Fold change /veh SPTSSB (11747773_x_at) / RFU PRSS12 (11739890_at) / Fold change /veh PRSS12 (11739890_at) / RFU BIN1 (11741810_x_at) / Fold change /veh BIN1 (11741810_x_at) / RFU WNT11 (11732464_a_at) / Fold change /veh WNT11 (11732464_a_at) / RFU C10orf10 (11716521_a_at) / Fold change /veh C10orf10 (11716521_a_at) / RFU C5orf56 (11738089_at) / Fold change /veh C5orf56 (11738089_at) / RFU CYB561 (11721691_x_at) / Fold change /veh CYB561 (11721691_x_at) / RFU ANKRD19P (11752326_a_at) / Fold change /veh ANKRD19P (11752326_a_at) / RFU OR2T12 /// OR2T33 /// OR2T8 (11738714_s_at) / Fold change /veh OR2T12 /// OR2T33 /// OR2T8 (11738714_s_at) / RFU VCAN (11748164_a_at) / Fold change /veh VCAN (11748164_a_at) / RFU JSRP1 (11732532_at) / Fold change /veh JSRP1 (11732532_at) / RFU KRTAP10-11 (11738290_x_at) / Fold change /veh KRTAP10-11 (11738290_x_at) / RFU MYO3A (11730013_a_at) / Fold change /veh MYO3A (11730013_a_at) / RFU EBF3 (11725865_a_at) / Fold change /veh EBF3 (11725865_a_at) / RFU CAMK2N1 (11719241_x_at) / Fold change /veh CAMK2N1 (11719241_x_at) / RFU C5orf56 (11738088_a_at) / Fold change /veh C5orf56 (11738088_a_at) / RFU OLFML3 (11715873_a_at) / Fold change /veh OLFML3 (11715873_a_at) / RFU LOC100653217 /// NTM (11731650_a_at) / Fold change /veh LOC100653217 /// NTM (11731650_a_at) / RFU MAPK11 (11762145_a_at) / Fold change /veh MAPK11 (11762145_a_at) / RFU FIZ1 (11724087_x_at) / Fold change /veh FIZ1 (11724087_x_at) / RFU OASL (11726364_x_at) / Fold change /veh OASL (11726364_x_at) / RFU SOX15 (11748057_x_at) / Fold change /veh SOX15 (11748057_x_at) / RFU CD79A (11719716_a_at) / Fold change /veh CD79A (11719716_a_at) / RFU HIST1H1D (11736915_at) / Fold change /veh HIST1H1D (11736915_at) / RFU CASKIN2 (11723855_a_at) / Fold change /veh CASKIN2 (11723855_a_at) / RFU LOC730098 (11760151_x_at) / Fold change /veh LOC730098 (11760151_x_at) / RFU OR4N2 (11742367_at) / Fold change /veh OR4N2 (11742367_at) / RFU PRRT2 (11749266_a_at) / Fold change /veh PRRT2 (11749266_a_at) / RFU SNX32 (11753110_a_at) / Fold change /veh SNX32 (11753110_a_at) / RFU CDHR5 (11726645_a_at) / Fold change /veh CDHR5 (11726645_a_at) / RFU RCAN1 (11760418_a_at) / Fold change /veh RCAN1 (11760418_a_at) / RFU FAM167A (11723789_a_at) / Fold change /veh FAM167A (11723789_a_at) / RFU FAM26E (11764081_at) / Fold change /veh FAM26E (11764081_at) / RFU ISYNA1 (11749810_s_at) / Fold change /veh ISYNA1 (11749810_s_at) / RFU ACY1 (11761880_at) / Fold change /veh ACY1 (11761880_at) / RFU 11764098_at / Fold change /veh 11764098_at / RFU SAMD14 (11745864_x_at) / Fold change /veh SAMD14 (11745864_x_at) / RFU NPB (11741838_a_at) / Fold change /veh NPB (11741838_a_at) / RFU TMPRSS6 (11731388_a_at) / Fold change /veh TMPRSS6 (11731388_a_at) / RFU KRTAP10-2 (11738614_at) / Fold change /veh KRTAP10-2 (11738614_at) / RFU ARHGAP8 /// PRR5-ARHGAP8 (11727945_x_at) / Fold change /veh ARHGAP8 /// PRR5-ARHGAP8 (11727945_x_at) / RFU KRTAP5-7 /// NADSYN1 (11734609_at) / Fold change /veh KRTAP5-7 /// NADSYN1 (11734609_at) / RFU RASL12 (11751679_a_at) / Fold change /veh RASL12 (11751679_a_at) / RFU CDKN2B (11736163_a_at) / Fold change /veh CDKN2B (11736163_a_at) / RFU PRF1 (11729649_at) / Fold change /veh PRF1 (11729649_at) / RFU, ZNF638 /// ZNF638-IT1 / Fold change vs veh, ZNF638 /// ZNF638-IT1 / RFU, PANK3 / Fold change vs veh, PANK3 / RFU, SH3YL1 / Fold change vs veh, SH3YL1 / RFU, ZEB2 / Fold change vs veh, ZEB2 / RFU, NRIP1 / Fold change vs veh, NRIP1 / RFU, PTTG1IP / Fold change vs veh, PTTG1IP / RFU, CAPN2 / Fold change vs veh, CAPN2 / RFU, MED14 / Fold change vs veh, MED14 / RFU, SNORA58 / Fold change vs veh, SNORA58 / RFU, C1orf63 / Fold change vs veh, C1orf63 / RFU, LRRFIP1 / Fold change vs veh, LRRFIP1 / RFU, NDUFAF7 / Fold change vs veh, NDUFAF7 / RFU, SLC12A2 / Fold change vs veh, SLC12A2 / RFU, IBTK / Fold change vs veh, IBTK / RFU, ESF1 / Fold change vs veh, ESF1 / Fold change vs veh, TMEM50B / RFU, TAOK1 / Fold change vs veh, TAOK1 / RFU, ACBD3 / Fold change vs veh, ACBD3 / RFU, TMA16 / Fold change vs veh, TMA16 / RFU, RWDD3 / Fold change vs veh, RWDD3 / RFU, BCAT1 / Fold change vs veh, BCAT1 / RFU, EDEM3 / Fold change vs veh, EDEM3 / RFU, TMEM33 / Fold change vs veh, TMEM33 / RFU, WDR75 / Fold change vs veh, WDR75 / RFU, AHCTF1 / Fold change vs veh, AHCTF1 / RFU, TFRC / Fold change vs veh, TFRC / RFU, ZDHHC17 / Fold change vs veh, ZDHHC17 / RFU, NOM1 / Fold change vs veh, NOM1 / RFU, ARL8B / Fold change vs veh, ARL8B / RFU, ZBTB11 / Fold change vs veh, ZBTB11 / RFU, TAMM41 / Fold change vs veh, TAMM41 / RFU, KIAA1704 /// LOC100996395 / Fold change vs veh, KIAA1704 /// LOC100996395 / RFU, ING1 / Fold change vs veh, ING1 / RFU, TRMT61B / Fold change vs veh, TRMT61B / RFU, FUBP3 / Fold change vs veh, FUBP3 / RFU, TP53 / Fold change vs veh, TP53 / RFU, TNKS2 / Fold change vs veh, TNKS2 / RFU, ZFP14 / Fold change vs veh, ZFP14 / RFU, ACTR2 / Fold change vs veh, ACTR2 / RFU, PPP3R1 / Fold change vs veh, PPP3R1 / RFU, PIK3R1 / Fold change vs veh, PIK3R1 / RFU, HNRNPA1 / Fold change vs veh, HNRNPA1 / RFU, RNF170 / Fold change vs veh, RNF170 / RFU, ZNF28 / Fold change vs veh, ZNF28 / RFU, RNGTT / Fold change vs veh, RNGTT / RFU, OGT / Fold change vs veh, OGT / RFU, BRD1 / Fold change vs veh, BRD1 / RFU, MARS / Fold change vs veh, MARS / RFU, ZNF655 / Fold change vs veh, ZNF655 / RFU, FAHD1 / Fold change vs veh, FAHD1 / RFU, BDP1 / Fold change vs veh, BDP1 / RFU, LRRCC1 / Fold change vs veh, LRRCC1 / RFU, ARID1A / Fold change vs veh, ARID1A / RFU, ZNF146 / Fold change vs veh, ZNF146 / RFU, ZNF330 / Fold change vs veh, ZNF330 / RFU, GPN3 / Fold change vs veh, GPN3 / RFU, C9orf123 / Fold change vs veh, C9orf123 / RFU, N4BP2L2 / Fold change vs veh, N4BP2L2 / RFU, ARFIP1 / Fold change vs veh, ARFIP1 / RFU, FAM179B / Fold change vs veh, FAM179B / RFU, BCL10 / Fold change vs veh, BCL10 / RFU, UHRF1BP1L / Fold change vs veh, UHRF1BP1L / RFU, BET1 / Fold change vs veh, BET1 / RFU, CNOT2 / Fold change vs veh, CNOT2 / RFU, ZNF268 / Fold change vs veh, ZNF268 / Fold change vs veh, ZNF507 / RFU, DGCR2 / Fold change vs veh, DGCR2 / RFU, WDSUB1 / Fold change vs veh, WDSUB1 / Fold change vs veh, HSP90B1 /// MIR3652 / RFU, ADSS / Fold change vs veh, ADSS / RFU, GK / Fold change vs veh, GK / RFU, ZNF148 / Fold change vs veh, ZNF148 / RFU, TAF9 / Fold change vs veh, TAF9 / RFU, SLC1A5 / Fold change vs veh, SLC1A5 / RFU, SLMO2 / Fold change vs veh, SLMO2 / RFU, ABCC4 / Fold change vs veh, ABCC4 / RFU, LOC101060439 /// RAP1B / Fold change vs veh, LOC101060439 /// RAP1B / RFU, RFX7 / Fold change vs veh, RFX7 / RFU, GTPBP10 / Fold change vs veh, GTPBP10 / RFU, CNEP1R1 / Fold change vs veh, CNEP1R1 / RFU, BIVM-ERCC5 /// ERCC5 / Fold change vs veh, BIVM-ERCC5 /// ERCC5 / RFU, ILF3 / Fold change vs veh, ILF3 / RFU 11762660_at / Fold change /veh 11762660_at / RFU VCAN (11757783_s_at) / Fold change /veh VCAN (11757783_s_at) / RFU DDX43 (11728927_at) / Fold change /veh DDX43 (11728927_at) / RFU KRT8 (11758188_x_at) / Fold change /veh KRT8 (11758188_x_at) / RFU NKD1 (11759106_at) / Fold change /veh NKD1 (11759106_at) / RFU SRD5A1 (11742802_a_at) / Fold change /veh SRD5A1 (11742802_a_at) / RFU TPSAB1 /// TPSB2 (11721975_s_at) / Fold change /veh TPSAB1 /// TPSB2 (11721975_s_at) / RFU GSTM3 (11746129_a_at) / Fold change /veh GSTM3 (11746129_a_at) / RFU IL23R (11737362_x_at) / Fold change /veh IL23R (11737362_x_at) / RFU TMEM51 (11727254_a_at) / Fold change /veh TMEM51 (11727254_a_at) / RFU PIWIL2 (11732686_x_at) / Fold change /veh PIWIL2 (11732686_x_at) / RFU ORM1 (11744905_x_at) / Fold change /veh ORM1 (11744905_x_at) / RFU CCDC152 (11743942_at) / Fold change /veh CCDC152 (11743942_at) / RFU ECM1 (11717891_a_at) / Fold change /veh ECM1 (11717891_a_at) / RFU IL23R (11748794_a_at) / Fold change /veh IL23R (11748794_a_at) / RFU TNFAIP8L3 (11732012_x_at) / Fold change /veh TNFAIP8L3 (11732012_x_at) / RFU MBOAT4 (11741988_at) / Fold change /veh MBOAT4 (11741988_at) / RFU 11764193_at / Fold change /veh 11764193_at / RFU TMEM53 (11763286_at) / Fold change /veh TMEM53 (11763286_at) / RFU MAGEB2 (11727129_at) / Fold change /veh MAGEB2 (11727129_at) / RFU TMEM200A (11744735_a_at) / Fold change /veh TMEM200A (11744735_a_at) / RFU CCDC152 (11751479_a_at) / Fold change /veh CCDC152 (11751479_a_at) / RFU FAM211A (11726209_a_at) / Fold change /veh FAM211A (11726209_a_at) / RFU RGS16 (11746705_a_at) / Fold change /veh RGS16 (11746705_a_at) / RFU VCAN (11755009_s_at) / Fold change /veh VCAN (11755009_s_at) / RFU RHOB (11743442_s_at) / Fold change /veh RHOB (11743442_s_at) / RFU RGS16 (11720943_a_at) / Fold change /veh RGS16 (11720943_a_at) / RFU RGS16 (11720944_at) / Fold change /veh RGS16 (11720944_at) / RFU, VPS4B / Fold change vs veh, VPS4B / RFU, CREB1 / Fold change vs veh, CREB1 / RFU, DNAJC13 / Fold change vs veh, DNAJC13 / RFU, GNAQ / Fold change vs veh, GNAQ / RFU, CDK5R1 / Fold change vs veh, CDK5R1 / RFU, ZRANB3 / Fold change vs veh, ZRANB3 / RFU, CUL4A / Fold change vs veh, CUL4A / RFU, CCNY / Fold change vs veh, CCNY / RFU, UFL1 / Fold change vs veh, UFL1 / RFU, COG3 / Fold change vs veh, COG3 / RFU, DIAPH2 / Fold change vs veh, DIAPH2 / RFU, SKA2 / Fold change vs veh, SKA2 / RFU, AFF3 / Fold change vs veh, AFF3 / RFU, LMF1 / Fold change vs veh, LMF1 / RFU, IPO11 / Fold change vs veh, IPO11 / RFU, DFFB / Fold change vs veh, DFFB / RFU, FOXP1 / Fold change vs veh, FOXP1 / RFU, CARD8 / Fold change vs veh, CARD8 / RFU, STRN3 / Fold change vs veh, STRN3 / RFU, ADK / Fold change vs veh, ADK / RFU, RASSF2 / Fold change vs veh, RASSF2 / RFU, WIPF1 / Fold change vs veh, WIPF1 / RFU, LARP1B / Fold change vs veh, LARP1B / RFU, RASA1 / Fold change vs veh, RASA1 / RFU, RB1 / Fold change vs veh, RB1 / RFU, PPFIA1 / Fold change vs veh, PPFIA1 / RFU, MAT2A / Fold change vs veh, MAT2A / RFU, CCT5 / Fold change vs veh, CCT5 / RFU, WDR92 / Fold change vs veh, WDR92 / RFU, CUX1 / Fold change vs veh, CUX1 / RFU, TTC7A / Fold change vs veh, TTC7A / RFU, TMEM135 / Fold change vs veh, TMEM135 / RFU, DEPTOR / Fold change vs veh, DEPTOR / RFU, CPM / Fold change vs veh, CPM / RFU, DNAJB6 / Fold change vs veh, DNAJB6 / RFU, CACNA2D3 / Fold change vs veh, CACNA2D3 / RFU, DTX4 / Fold change vs veh, DTX4 / RFU, TFCP2 / Fold change vs veh, TFCP2 / RFU, GMCL1 /// GMCL1P1 / Fold change vs veh, GMCL1 /// GMCL1P1 / RFU, AEBP2 / Fold change vs veh, AEBP2 / RFU, SNHG1 /// SNORD22 /// SNORD25 /// SNORD26 /// SNORD27 /// SNORD28 /// SNORD29 /// SNORD31 / Fold change vs veh, SNHG1 /// SNORD22 /// SNORD25 /// SNORD26 /// SNORD27 /// SNORD28 /// SNORD29 /// SNORD31 / Fold change (Aza/veh), C12orf56 (ProbeSet 11735607_a_at) / Fold change (ACY-1035/veh), C12orf56 (ProbeSet 11735607_a_at) / Fold change (Aza/veh), FGFR1OP (ProbeSet 11751329_s_at) / Fold change (ACY-1035/veh), FGFR1OP (ProbeSet 11751329_s_at) / Fold change (Aza/veh), VPS36 (ProbeSet 11739960_a_at) / Fold change (ACY-1035/veh), VPS36 (ProbeSet 11739960_a_at) / RFU SYPL1 (11715823_x_at) / Fold change /veh SYPL1 (11715823_x_at) / RFU IGFBP7 (11715501_s_at) / Fold change /veh IGFBP7 (11715501_s_at) / RFU REEP3 (11722064_at) / Fold change /veh REEP3 (11722064_at) / RFU IGLL1 (11728026_x_at) / Fold change /veh IGLL1 (11728026_x_at): dose or concentration left out as unconfirmed
Details: ProbeSet 11758170_s_at; LIST D

Nc1ncn([C@@H]2O[C@H](CO)[C@@H](O)[C@H]2O)c(=O)n1 [azacitidine]
RFU, DIAPH2: 23.40 RFU
